Reference: US11413278B2, “Compounds and methods for promoting stress resistance” (priority 2015, dated 2022)
Entries after “also recorded” stand apart in the source; their conditions may differ. Read-outs that look alike come from different tables or passages of the source.

Experiments:
Format in all cases: cell-based, human
[1] = tested on: mTOR; assay: mTOR inhibition (RPS6 phosphorylation status), In-Cell Western
Method in brief: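 Read-out is In-Cell Western near-infrared imaging of phospho-RPS6 (Ser-235/236) against total RPS6, using overnight 4° C primary staining and DyLight 680/800 secondaries. Compounds were given to WI-38 cells for 24 hrs at three doses: 5, 10 and 20 μM.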

[2] = tested on: FOXO3; assay: qPCR analysis of FOXO3-regulated genes; conditions: for fold induction at 10 µM: Homo sapiens; for K = Sestrin induction: score; for Induction of at least two of five FOXO3-regulated genes (SOD2, GADD45A, CAT, DDB1, TXNIP): WI-38
Method in brief: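 FOXO3 target-gene expression quantified by qPCR normalised to B2M, PPIA and GAPDH, in WI-38 cells after 24 h exposure to 10 μM compound. Some runs used cells first transfected 36 h with 10 nM FOXO3 or NRF2 siRNA and replated ~24 h before dosing.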

[3] = tested on: NRF2; assay: qPCR analysis of NRF2-regulated genes; conditions: for fold induction at 10 µM: Homo sapiens
Method in brief: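 Expression of HMOX1, NQO1, GCLC and GSTM1 measured by qPCR relative to B2M, PPIA and GAPDH. Cells were WI-38 fibroblasts exposed 24 hrs to 10 μM compound, with RNA and cDNA prepared via Cells-to-Ct. Where stated, cells were first transfected 36 hrs with FOXO3 or NRF2 siRNA at 10 nM.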

[4] = 24 h, Assay 10(m), at 10 uM, qPCR, read-out: Induction of FOXO3-regulated genes: SESN1 normalized fold-change
[5] = 10 μM, 24 hrs, WI-38 cells, qPCR, normalized to B2M, n = 4, read-out: SESN1 expression, normalized fold change (FOXO3-regulated gene)
[6] = WI-38 cells, 10 μM, 24 hrs, n=4, qPCR normalized by B2M, read-out: DDB1 Normalized fold change
[7] = WI-38 cells, 10 μM, 24 hrs, n=4, qPCR normalized by B2M, read-out: GADD45A Normalized fold change
[8] = WI-38 cells, 10 μM, 24 hrs, n=4, qPCR normalized by B2M, read-out: SESN1 Normalized fold change
[9] = fold change, qPCR, WI-38 cells, 10 μM, 24 hrs, read-out: Summary of effects on FOXO3-regulated genes: SESN1
[10] = qPCR, WI-38 cells, 10 μM, n=4, 24 hrs, normalized by B2M, read-out: CAT Normalized fold change
[11] = qPCR, WI-38 cells, 10 μM, n=4, 24 hrs, normalized by B2M, read-out: SOD2 Normalized fold change
[12] = qPCR, WI-38 cells, 10 μM, n=4, 24 hrs, normalized by B2M, read-out: TXNIP Normalized fold change
[13] = 24 h, Assay 12(o), at 10 uM, qPCR, read-out: Induction of NRF2-regulated genes: GCLC normalized fold-change
[14] = 24 h, Assay 12(o), at 10 uM, qPCR, read-out: Induction of NRF2-regulated genes: HMOX1 normalized fold-change
[15] = rounded fold change, WI-38 cells, 10 μM, 24 hrs (RP11 for Gr-1D, RP29 for Gr-4D), read-out: Summary of effects on NRF2-regulated genes: HMOX1
[16] = rounded fold change, WI-38 cells, 10 μM, 24 hrs, read-out: Summary of effects on NRF2-regulated genes: GCLC
[17] = 10 μM, 24 hrs, WI-38 cells, qPCR, normalized to B2M, n = 4, read-out: GCLC expression, normalized fold change (NRF2-regulated gene)
[18] = 10 μM, 24 hrs, WI-38 cells, qPCR, normalized to B2M, n = 4, read-out: HMOX1 expression, normalized fold change (NRF2-regulated gene)
[19] = WI-38 cells, 10 μM, 24 hrs, n=4, qPCR normalized by B2M, read-out: GCLC Normalized fold change
[20] = WI-38 cells, 10 μM, 24 hrs, n=4, qPCR normalized by B2M, read-out: GSTM1 Normalized fold change
[21] = WI-38 cells, 10 μM, 24 hrs, n=4, qPCR normalized by B2M, read-out: HMOX1 Normalized fold change
[22] = WI-38 cells, 10 μM, 24 hrs, n=4, qPCR normalized by B2M, read-out: NQO1 Normalized fold change
[23] = 24 h, Assay 10(m), at 10 uM, qPCR, read-out: Induction of FOXO3-regulated genes: CAT normalized fold-change
[24] = 24 h, Assay 10(m), at 10 uM, qPCR, read-out: Induction of FOXO3-regulated genes: GADD45A normalized fold-change
[25] = 10 μM, 24 hrs, WI-38 cells, qPCR, normalized to B2M, n = 4, read-out: CAT expression, normalized fold change (FOXO3-regulated gene)
[26] = 10 μM, 24 hrs, WI-38 cells, qPCR, normalized to B2M, n = 4, read-out: GADD45A expression, normalized fold change (FOXO3-regulated gene)
[27] = fold change, qPCR, WI-38 cells, 10 μM, 24 hrs, read-out: Summary of effects on FOXO3-regulated genes: CAT
[28] = fold change, qPCR, WI-38 cells, 10 μM, 24 hrs, read-out: Summary of effects on FOXO3-regulated genes: GADD45A
[29] = 24 h, Assay 12(o), at 10 uM, qPCR, read-out: Induction of NRF2-regulated genes: NQO1 normalized fold-change
[30] = rounded fold change, WI-38 cells, 10 μM, 24 hrs (RP29 for Gr-4D), read-out: Summary of effects on NRF2-regulated genes: NQO1
[31] = 10 μM, 24 hrs, WI-38 cells, qPCR, normalized to B2M, n = 4, read-out: NQO1 expression, normalized fold change (NRF2-regulated gene)

COc1ccc(/C=C2\SC(=N)N(c3nccs3)C2=O)cc1 [O21]
G = mTOR down-regulation ([1]; 2-point score): 0 | G = mTOR down-regulation ([1]; summary score): 0 | E = Potential FOXO3 Activation ([2]; 2-point score): 0 | fold induction at 10 µM [2, 4]: 1.88 | fold induction at 10 µM ([2]; WI-38, 24 h, read-out: SESN1 expression): > 1.5 | fold induction at 10 µM [2, 5]: 1.88 | fold induction at 10 µM [2, 6]: 1.45 | fold induction at 10 µM [2, 7]: 2.06 | fold induction at 10 µM [2, 8]: 1.88 | fold induction at 10 µM [2, 9]: 1.88 | fold induction at 10 µM [2, 10]: 1.3 | fold induction at 10 µM [2, 11]: 1.12 | fold induction at 10 µM [2, 12]: 0.9 | K = Sestrin induction [2]: 1 | E = Potential FOXO3 Activation ([2]; summary score): 0 | F = Potential NRF2 Activation ([3]; 2-point score): 0 | fold induction at 10 µM [3, 13]: 0.51 | fold induction at 10 µM ([3]; 24 h, Assay 12(o), at 10 uM, qPCR, read-out: Induction of NRF2-regulated genes: GSTM1 normalized fold-change): 1.25 | fold induction at 10 µM [3, 14]: 3.02 | fold induction at 10 µM [3, 15]: 3.02 | fold induction at 10 µM ([3]; rounded fold change, WI-38 cells, 10 μM, 24 hrs (RP29 for Gr-4D), read-out: Summary of effects on NRF2-regulated genes: GSTM1): 1.25 | fold induction at 10 µM [3, 16]: 0.51 | fold induction at 10 µM [3, 17]: 0.51 | fold induction at 10 µM ([3]; 10 μM, 24 hrs, WI-38 cells, qPCR, normalized to B2M, n = 4, read-out: GSTM1 expression, normalized fold change (NRF2-regulated gene)): 1.25 | fold induction at 10 µM [3, 18]: 3.02 | fold induction at 10 µM [3, 19]: 0.512 | fold induction at 10 µM [3, 20]: 1.25 | fold induction at 10 µM [3, 21]: 3.02 | fold induction at 10 µM [3, 22]: 0.836 | F = Potential NRF2 Activation ([3]; summary score): 0

CCCC(=O)Nc1ccc(-c2cn3cccc(C)c3n2)cc1 [O12]
G = mTOR down-regulation ([1]; 2-point score): 0 | G = mTOR down-regulation ([1]; summary score): 0 | Induction of at least two of five FOXO3-regulated genes (SOD2, GADD45A, CAT, DDB1, TXNIP) ([2]; 10 μM, 24 hrs): significant induction | SOD2 expression, normalized fold change (FOXO3-regulated gene) ([2]; 10 μM, 24 hrs, WI-38 cells, qPCR, normalized to B2M, n = 4): SOD2 1.52, fold | E = Potential FOXO3 Activation ([2]; 2-point score): 2 | fold induction at 10 µM [2, 23]: 0.82 | fold induction at 10 µM ([2]; 24 h, Assay 10(m), at 10 uM, qPCR, read-out: Induction of FOXO3-regulated genes: DDB1 normalized fold-change): 0.86 | fold induction at 10 µM [2, 24]: 1.44 | fold induction at 10 µM ([2]; 24 h, Assay 10(m), at 10 uM, qPCR, read-out: Induction of FOXO3-regulated genes: SOD2 normalized fold-change): 1.35 | fold induction at 10 µM [2, 25]: 0.8 | fold induction at 10 µM [2, 26]: 1.69 | fold induction at 10 µM [2, 6]: 1.02 | fold induction at 10 µM [2, 7]: 1.69 | fold induction at 10 µM [2, 8]: 1.05 | fold induction at 10 µM [2, 27]: 0.8 | fold induction at 10 µM [2, 28]: 1.69 | fold induction at 10 µM [2, 10]: 0.802 | fold induction at 10 µM [2, 11]: 1.52 | fold induction at 10 µM [2, 12]: 0.909 | Summary of effects on FOXO3-regulated genes: SOD2 ([2]; fold change, qPCR, WI-38 cells, 10 μM, 24 hrs): SOD2 1.52, | K = Sestrin induction [2]: 0 | E = Potential FOXO3 Activation ([2]; summary score): 0 | F = Potential NRF2 Activation ([3]; 2-point score): 0 | fold induction at 10 µM [3, 13]: 0.54 | fold induction at 10 µM [3, 14]: 0.76 | fold induction at 10 µM [3, 29]: 0.66 | fold induction at 10 µM [3, 15]: 0.82 | fold induction at 10 µM [3, 30]: 0.69 | fold induction at 10 µM [3, 16]: 0.53 | fold induction at 10 µM [3, 17]: 0.53 | fold induction at 10 µM [3, 18]: 0.82 | fold induction at 10 µM [3, 31]: 0.69 | fold induction at 10 µM [3, 19]: 0.531 | fold induction at 10 µM [3, 20]: 1.21 | fold induction at 10 µM [3, 21]: 0.821 | fold induction at 10 µM [3, 22]: 0.692 | F = Potential NRF2 Activation ([3]; summary score): 0

CCCN1C/C(=C\c2ccc(F)cc2)C(=O)/C(=C/c2ccc(F)cc2)C1 [O15]
G = mTOR down-regulation ([1]; 2-point score): 0 | G = mTOR down-regulation ([1]; summary score): 0 | Induction of at least two of five FOXO3-regulated genes (SOD2, GADD45A, CAT, DDB1, TXNIP) ([2]; 10 μM, 24 hrs): significant induction; also recorded: significant, induction | E = Potential FOXO3 Activation ([2]; 2-point score): 0 | fold induction at 10 µM [2, 23]: 1.28 | fold induction at 10 µM [2, 24]: 2.72 | fold induction at 10 µM [2, 4]: 0.8 | fold induction at 10 µM ([2]; 24 h, Assay 10(m), at 10 uM, qPCR, read-out: Induction of FOXO3-regulated genes: TXNIP normalized fold-change): 0.22 | fold induction at 10 µM [2, 25]: 1.28 | fold induction at 10 µM [2, 26]: 2.72 | fold induction at 10 µM [2, 5]: 0.8 | fold induction at 10 µM ([2]; 10 μM, 24 hrs, WI-38 cells, qPCR, normalized to B2M, n = 4, read-out: TXNIP expression, normalized fold change (FOXO3-regulated gene)): 0.22 | fold induction at 10 µM [2, 6]: 1.17 | fold induction at 10 µM [2, 7]: 2.71 | fold induction at 10 µM [2, 8]: 0.679 | fold induction at 10 µM [2, 27]: 1.28 | fold induction at 10 µM [2, 28]: 2.72 | fold induction at 10 µM [2, 9]: 0.8 | fold induction at 10 µM ([2]; fold change, qPCR, WI-38 cells, 10 μM, 24 hrs, read-out: Summary of effects on FOXO3-regulated genes: TXNIP): 0.22 | fold induction at 10 µM [2, 10]: 1.28 | fold induction at 10 µM [2, 11]: 1.05 | fold induction at 10 µM [2, 12]: 0.219 | K = Sestrin induction [2]: 0 | E = Potential FOXO3 Activation ([2]; summary score): 0 | F = Potential NRF2 Activation ([3]; 2-point score): 2 | Potential NRF2 Activation (>=2 target genes induced, by >=1.5-fold) ([3]; Assay 13(p)): YES | fold induction at 10 µM [3, 14]: 48.7 | fold induction at 10 µM [3, 29]: 1.6 | fold induction at 10 µM [3, 15]: 48.7 | fold induction at 10 µM [3, 30]: 1.6 | fold induction at 10 µM ([3]; 10 μM, 24 hrs, WI-38, read-out: Expression of at least two NRF2 target genes): > 1.5 | fold induction at 10 µM [3, 18]: 48.7 | fold induction at 10 µM [3, 31]: 1.6 | fold induction at 10 µM [3, 19]: 1.23 | fold induction at 10 µM [3, 20]: 0.995 | fold induction at 10 µM [3, 21]: 48.7 | fold induction at 10 µM [3, 22]: 1.6 | F = Potential NRF2 Activation ([3]; summary score): 2
